In one series the test system is cancer cell lines. Description: In vitro combination studies with standard chemotherapeutic agents and signal transduction inhibitors. Format: cell-based. The conditions noted are these: with standard chemotherapeutic agents such as taxol, and novel signal transduction inhibitors. From the text:
CC001 is a low molecular weight mixed kinase inhibitor (MKI) with potent in vitro inhibitory activity against a variety of kinases.

The next series relates to NCI-H460 NSCLC xenograft. Description: NCI-H460 NSCLC xenograft model. The conditions noted are these: CC001 combined with the maximum tolerated dose of Taxotere. The class given is in vivo. The procedure: A similar study was performed using an NCI-H460 NSCLC xenograft model in which CC001 was combined with the maximum tolerated dose of Taxotere (an anti-cancer compound related to taxol). […]. […]

The structures appear in SMILES notation.

In the case of `COc1ccc2cc(-c3n[nH]c4ccc(-c5n[nH]c(CN6CCOCC6)n5)cc34)ccc2c1` [CC001, 3-(6-Methoxynaphthalen-2-yl)-5-(5-Morpholin-4-Ylmethyl-1H-[1,2,4]Triazol-3-yl)-1H-Indazole], in the series on cancer cell lines, the “antiproliferative activity in combination” value is “additive and/or synergistic antiproliferative activity”. In addition, in the series with NCI-H460 NSCLC xenograft, the T/C ratio is recorded as 16-28% and the “additional toxicity as evidenced by weight loss” value is listed as “No apparent additional toxicity”.

The values above are taken from patent US20050107386A1, “Methods of treating diseases and disorders by targeting multiple kinases” (priority 2003, published 2005).
